{"source": "paper PMC7407834", "about": "“Development of an LDL Receptor-Targeted Peptide Susceptible to Facilitate the Brain Access of Diagnostic or Therapeutic Agents” (Biology, 2020)", "key": {"1321N1 cells": {"test_system": "1321N1 cells", "assay": "Colocalization of LRPep2 with caveolae and lysosomes, 1321N1", "type": "cell-based", "description": "(§1) Cells were first incubated with LRPep2-rho, as described above (cf. 2.4. Evaluation of the endocytosis potential of peptides LRPep1 and LRPep2), before being permeabilized with methanol. Then, cells were blocked with PBS supplemented with 5% NGS and 0.3% Triton X-100. Caveolae and lysosomes were detected using anti-caveolin 1 and anti-LAMP1 (Lysosomal-Associated Membrane Protein 1) antibodies, respectively, made in rabbit (both from Santa Cruz, Heidelberg, Germany) and incubated overnight at 4 µg/mL in PBS. Finally, cells were incubated for 1 h with an anti-rabbit IgG made in goat coupled to fluorescein (Vector Labconsult) at 20 µg/mL in phosphate buffer pH 7.8 supplemented with 0.5% BSA. Cells were mounted with Vectashield mounting medium with DAPI."}, "ACBRI376 cells": {"test_system": "ACBRI376 cells", "assay": "Colocalization of LRPep2 with caveolae and lysosomes, ACBRI376", "type": "cell-based, human", "description": "as §1"}, "HepaRG cells": {"test_system": "HepaRG cells", "assay": "Colocalization of LRPep2 with caveolae and lysosomes, HepaRG", "type": "cell-based", "conditions": "p < 0.001", "description": "as §1"}, "N18(H) cells": {"test_system": "N18(H) cells", "assay": "Colocalization of LRPep2 with caveolae and lysosomes, N18(H)", "type": "cell-based", "conditions": "differentiated N18(H) cells", "description": "Experiments on N18(H) cells were performed after differentiation. Cells were immobilized on the appropriate support, and the differentiation was induced the second day, using medium containing 0.2% FBS for 48 h.\nas §1"}, "[1]": {"test_system": "HUVEC, HepaRG, ACBRI376 and 1321N1 cells", "assay": "Endocytosis of rhodamine-coupled peptides, fluorescence microscopy (RRFL)", "type": "cell-based, human", "conditions": "all studied cell models, p < 0.001 in HepaRG, p < 0.05 in HUVEC", "description": "Cells were seeded onto coverslips coated with collagen (0.2 mg/mL, Sigma-Aldrich, Overijse, Belgium) at a density of 8 × 10^5 cells/well and grown for 3 days.\nCells were incubated for 2 h at 37 °C in the dark with LRPep1-rho or LRPep2-rho (peptides coupled to rhodamine, 200 µM in culture medium for HepaRG and HUVEC, 25 µM for ACBRI376 and 1321N1); the negative control was incubated with culture medium. The use of the rhodamine as a fluorescent probe was based on our previous experience with labeled peptides. Cells were rinsed two times with PBS (per liter: 8 g NaCl, 0.2 g KCl, 2.31 g Na2HPO4 × 12 H2O, 0.2 g KH2PO4, pH 7.4). […]\nFluorescence was observed using a Leica DM2000 microscope equipped with a light source EL 6000 and a DFC 425C camera (Leica Microsystems, Groot Bijgaarden, Belgium).\nFigure 4 Endocytosis of the peptides LRPep1-rho and LRPep2-rho (stained in red) in (A) HUVEC and HepaRG cells and (B) ACBRI376 and 1321N1 cells. […] (C–F) The endocytosis of peptides, as well as the expression of LDLR, was semi-quantitatively evaluated by the measurement of fluorescent labeling using the ImageJ software and was normalized to the number of cells and to the background, giving the relative ratio of fluorescent labeling (RRFL); *: p < 0.05, **: p < 0.001. […]"}}, "data": [{"sequence": "HPWCCGLRLDLR [LRPep2]", "values": [{"measurement": "Endocytosis pathway", "setting": "1321N1 cells", "value": "both pathways"}, {"measurement": "Endocytosis pathway", "setting": "ACBRI376 cells; ACBRI376, caveolin-1 fluorescence increased (p < 0.05), LAMP1 decreased (p < 0.05)", "value": "endocytosed by the non-degradation pathway involving caveolae"}, {"measurement": "Mander's coefficient (M), colocalization of rhodamine with caveolin-1", "setting": "ACBRI376 cells; ACBRI376 cells, LRPep2-rho 25 µM, 2 h 37 °C, Figure S4", "value": 82.7, "unit": "%"}, {"measurement": "Endocytosis pathway", "setting": "HepaRG cells", "value": "significant increase of fluorescence was observed for lysosomes"}, {"measurement": "Endocytosis pathway", "setting": "N18(H) cells", "value": "both pathways"}, {"measurement": "Endocytosis of the peptide compared with the other peptide", "setting": "[1]", "value": "more effective than that of peptide LRPep1"}]}]}
